Measured values published in US20210401931A1, “METHODS AND MATERIALS FOR TREATING CANCER” (Mayo Foundation for Medical Education and Research, priority 2018, published 2021).
Ends that are not written are not given here.

How the values were obtained:
PD-L1 = PD-L1 expression (western blot, RT-qPCR) in PC-3 cells expressing RL peptide; format: cell-based, human; conditions: for gamma irradiation-induced upregulation of PD-L1: 12 Gy
Description: FIGS. 5A-K. The importance of S249/T252 phosphorylation of RB in regulation of PD-L1 expression. (A, B) PC-3 cells were infected with lentivirus expressing control shRNA, RB1-specific, p65-specific, or both shRNA. 48 hours post puromycin selection, cells were harvested for western blotting (A) and RT-qPCR analysis (B). All data were shown as mean values±SD (n=3). * P<0.05, ** P<0.01, *** P<0.001. (C, D) DU145 cells were transfected with indicated plasmids. 24 hours after transfection, cells were harvested for western blotting analysis (C) and RT-qPCR analysis (D). All data were shown as mean values±SD (n=3). * P<0.05, ** P<0.01, *** P<0.001. (E, F) DU145 cells were transfected with indicated plasmids. 24 hours after transfection, cells were harvested for western blotting analysis (E) and RT-qPCR analysis (F). All data were shown as mean values±SD (n=3). * P<0.05, ** P<0.01, *** P<0.001. (G, H) PC-3 cells were infected with lentivirus expressing control shRNA or p65-specific shRNAs. After 24 hours, cells were further transfected with empty vector or SFB-RL-S249D/T252D for another 24 hours followed by western blot analysis (G) and RT-qPCR analysis (H). All data were shown as mean values±SD (n=3). * P<0.05, ** P<0.01, *** P<0.001. (I) Representative images of IHC of anti-PD-L1 and anti-pRB-S249/T252 antibodies of TMA (n=145 TMA elements) tissue sections. Scale bars were shown as indicated. (J) Heatmap showing IHC score of PD-L1 and pRB-S249/T252 in TMA. (K) Correlation analysis of IHC score for expression of PD-L1 and pRB-S249/T252 polypeptides in prostate cancer patient specimens (n=145 TMA elements). Pearson's product-moment correlation co-efficiency and the P values were also shown.
FIGS. 6A-J. The small S249/T252 phosphorylation-mimicking polypeptide of RB blocks irradiation-induced PD-L1 expression and inhibits cancer immune evasion. (A, B) PC-3 cells were infected with lentivirus expressing control shRNA or p65-specific or shRNA. 24 hours after puromycin selection, cells were treated with or without gamma irradiation (IR) (12 Gy). 48 hours after IR treatment, cells were harvested for western blotting analysis (A) and RT-qPCR analysis (B). All data were shown as mean values±SD (n=3). * P<0.05, ** P<0.01, *** P<0.001. (C, D) PC-3 cells were treated with without gamma irradiation (12 Gy). Cells were harvested at the indicated time point for western blotting analysis (C) and RT-qPCR analysis (D). All data were shown as mean values±SD (n=3). * P<0.05, ** P<0.01, *** P<0.001. (E) Western blot analysis of WCL and co-IP samples in PC-3 cells 48 hours after treated with or without gamma irradiation (12 Gy). (F) ChIP-qPCR analysis of p65 binds at the PD-L1 promotor in PC-3 cells 48 hours after treated with or without gamma irradiation (12 Gy). All data were shown as mean values±SD (n=3). * P<0.05, ** P<0.01, *** P<0.001. (G, H) PC-3 cells were treated with or without gamma irradiation (12 Gy). 24 hours post treatment, cells were transfected with indicated constructs. 24 hours after transfection, cells were harvested for western blotting analysis (G) and RT-qPCR analysis (H). All data were shown as mean values±SD (n=3). * P<0.05, ** P<0.01, *** P<0.001. (I) PTEN-CaP8 mouse prostate cancer cells were transduced with lentivirus for control vector or the small RB S249/T252-phosphorylation-mimicking polypeptide RL-S249D/T252D. 72 hours after purimycin selection, 5×10^6 control or RL-S249D/T252D-expressing cells were injected subcutaneously into C57BL/6 mice. Mice (n=8/group) were treated with gamma irradiation (12 Gy) or mock treated, and with anti-PD-L1 (200 μg) or non-specific IgG for 45 days. (J) The absolute number of CD45^+CD8^+ T cells, CD45^+CD4^+ T cells, and CD11b^+Gr1^+ myeloid cells of implanted PTEN-CaP8 in tumors treated with indicated agents was analyzed by FACS. All data were shown as mean values±SD (n=8). ns, not significant, *** P<0.001.
Total RNA was isolated using TRIzol reagent (Thermo Fisher Scientific). […]

p65 = target: T1, p65 (Homo sapiens, UniProt Q04206); assay: Co-IP of p65 by SFB-tagged RL peptide in 293T cells; format: binding; conditions: 48 hours after transfection
T1 construct: endogenous in cells; host or cells: 293T
T1 sequence (Q04206 whole entry): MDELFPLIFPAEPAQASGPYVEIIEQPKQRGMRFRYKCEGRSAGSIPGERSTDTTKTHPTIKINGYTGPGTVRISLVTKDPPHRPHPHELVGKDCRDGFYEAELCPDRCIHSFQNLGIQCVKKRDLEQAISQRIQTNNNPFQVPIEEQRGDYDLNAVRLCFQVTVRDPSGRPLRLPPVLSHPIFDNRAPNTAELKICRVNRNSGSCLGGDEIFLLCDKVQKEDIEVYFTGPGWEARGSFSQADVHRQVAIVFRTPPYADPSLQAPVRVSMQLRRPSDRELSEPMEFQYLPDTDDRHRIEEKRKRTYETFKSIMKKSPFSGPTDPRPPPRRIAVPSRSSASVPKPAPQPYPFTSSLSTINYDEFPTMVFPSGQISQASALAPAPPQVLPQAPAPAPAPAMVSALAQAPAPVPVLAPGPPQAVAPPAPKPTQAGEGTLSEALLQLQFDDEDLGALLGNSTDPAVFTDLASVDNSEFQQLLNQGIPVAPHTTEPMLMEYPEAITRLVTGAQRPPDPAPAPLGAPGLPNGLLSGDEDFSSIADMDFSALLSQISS
Description: FIGS. 10A-G. (A) Schematic diagram depicting a set of RB-N recombinant protein constructs. Western blot analysis of p65 proteins in PC-3 cells whole cell lysate pulled down by GST or GST-RB-N recombinant proteins. Stars indicate expected molecular weight. (B) Western blot analysis of in vitro transcribed and translated p65 proteins pulled down by GST or GST-RB recombinant proteins. Stars indicate expected molecular weight. (C) Western blot analysis of WCL and co-IP samples in 293T cells 48 h after transfected with indicated constructs. (D) Schematic diagram depicting an evolutionally conserved R-linker region in the N-terminal of RB. FIG. 10D discloses SEQ ID NOS 265 and 271-274, respectively, in order of appearance. (E) Western blot analysis of WCL and co-IP samples in 293T cells 48 hours after transfected with indicated constructs. (F) PC-3 cells were transfected with indicated plasmids. Western blot analysis of HA-RB proteins in PC-3 whole cell lysate pulled down by GST or GST-p65 recombinant proteins. Stars indicate expected molecular weight. (G) Schematic diagram depicting fully positively charged RB-N allows otherwise negatively charged by S249/T252 phosphorylation to bind to negatively charged 166FSLMV170 motif (SEQ ID NO: 286) in EID1. FIG. 10G discloses SEQ ID NOS 265-266 and 275, respectively, in order of appearance. […]

**Q.** How did the “PD-L1 expression in p65-proficient cells” value (PD-L1; PC-3 cells transfected with SFB-tagged peptide, 24 hours) turn out when “RL-S249D/T252D: S249/T252 phospho-mimicking R-Linker (RL) peptide: fragment of RB-N containing 21 amino acids surrounding S249/T252, expressed SFB-tagged or by lentivirus (NGDPRDPRRGQNRSARIAKQL; also: expressed SFB-tagged (tag left off))” was run?
**A.** The value was “largely inhibited”.

**Q.** What about the “PD-L1 expression (FIG. 6G)” value (PD-L1; PC-3 cells transfected with peptide construct) of the same substance?
**A.** Its value is “almost completely blocked”.

**Q.** What about the “PD-L1 expression in p65-depleted cells” value (PD-L1; PC-3 cells with p65 shRNA, transfected with SFB-tagged peptide, listed as RL-S249/T252D peptide) of the same substance?
**A.** The value was “little or no effect”.

**Q.** And the “gamma irradiation-induced upregulation of PD-L1” value (PD-L1; PC-3 cells, ectopic expression of peptide)?
**A.** Its value is “largely, but not completely blocked”.

**Q.** What about the “gamma irradiation-induced upregulation of PD-L1” value (PD-L1; PC-3 cells, ectopic expression of peptide, listed as RL-S249/T252D) of the same substance?
**A.** The value was “largely diminished”.

**Q.** And the PD-L1 basal level (PD-L1; PC-3 cells, ectopic expression of peptide, no irradiation)?
**A.** The PD-L1 basal level was “decreased”.

**Q.** What about the “immunoprecipitation of p65 by SFB-tagged RL peptide” value (p65) of the same substance?
**A.** Its value is “effectively immunoprecipitated”.
